# Test results reported in US20240252446A1, “DERIVATIZED COLLAGEN-HYALURONIC ACID BASED IMPLANTS FOR SUSTAINED DELIVERY OF OPHTHALMIC DRUGS” (SUSTAINED DRUG DELIVERY LLC, priority 2023, published 2024).
# Test: Evaluation of active agent release in vitro from polymerized collagen-hyaluronic acid film (HPLC)
# Type: physicochemical
# Settings: from UV-polymerized (18 min, 254 nm) collagen-hyaluronic acid film, 0.01 M phosphate buffer pH 7.4, 37° C., 1 hour to 3 months
# Description: Four round pieces of 35 mm diameter polymerized film were cut into 4 sections and placed in 1.5 mL vials containing 1 mL of 0.01 M phosphate buffer at a pH of 7.4. The 16 vials were placed in a controlled temperature chamber at 37° C. Five aliquots of 100 μL were removed from 2 vials each at 1 hour, 3 days, 7 days, 2 weeks, 1 month, 2 months, and 3 months. Two vials were reserved for additional time periods if release was still noted at 3 months. Four vials of buffer only were used for controls.
# Active agent concentration (e.g., Latanoprost) was measured by HPLC at Millennium Research Laboratories. Detection at nanogram levels was validated using active agent (e.g., Latanoprost) standards and concentration curves.
compound,measurement,value
"CC(C)OC(=O)CCC/C=C\C[C@@H]1[C@@H](CC[C@@H](O)CCc2ccccc2)[C@H](O)C[C@@H]1O [Latanoprost, 13,14-dihydro-17-phenyl-18,19,20-trinor-prostaglandin F2a-1-isopropyl ester]",Active agent release profile,"initial bolus release at 1 day followed by sustained, zero order release through 3 months"
